Laboratory results from PubChem BioAssay (NCI).
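Dose response: 5 concentrations. Exposure: 48 h. Format: 96-well plates. Endpoint: linear interpolation; highest concentration if not reached. GI50 is the concentration that inhibits growth by half. Definition used: TGI = concentration required for complete inhibition of growth.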

Tests used:
Experiment in all cases: growth of human tumour cells (NCI), 48 h
OVCAR-4 ovarian = system: OVCAR-4 ovarian
UACC-257 melanoma = system: UACC-257 melanoma
COLO 205 colon = system: COLO 205 colon
UACC-62 melanoma = system: UACC-62 melanoma
OVCAR-5 ovarian = system: OVCAR-5 ovarian
MOLT-4 leukemia = system: MOLT-4 leukemia
CAKI-1 renal = system: CAKI-1 renal
SNB-75 CNS = system: SNB-75 CNS
SF-295 CNS = system: SF-295 CNS
KM12 colon = system: KM12 colon

Structure (SMILES) | TGI (OVCAR-4 ovarian) | TGI (UACC-257 melanoma) | TGI (COLO 205 colon) | TGI (UACC-62 melanoma) | TGI (OVCAR-5 ovarian) | TGI (MOLT-4 leukemia) | TGI (CAKI-1 renal) | TGI (SNB-75 CNS) | TGI (SF-295 CNS) | GI50 (KM12 colon) | TGI (KM12 colon) | GI50 (MOLT-4 leukemia) | GI50 (CAKI-1 renal) | GI50 (SNB-75 CNS) | GI50 (OVCAR-4 ovarian) | GI50 (SF-295 CNS) | GI50 (UACC-257 melanoma) | GI50 (COLO 205 colon) | GI50 (UACC-62 melanoma) | GI50 (OVCAR-5 ovarian)
C[N+](C)(C)CC(=O)N/N=C/c1oc(-c2cccc([N+](=O)[O-])c2)c(-c2cccc([N+](=O)[O-])c2)c1[N+](=O)[O-] | > 100 µM | > 100 µM | > 100 µM | > 100 µM | > 100 µM | – | – | – | – | – | – | – | – | – | – | – | – | – | – | –
Cc1nn2c(=O)n(-c3cccc(-n4nnc5c(-c6ccccc6)c(C)nn5c4=O)c3C)nnc2c1-c1ccccc1 | 53.7 µM | 70.2 µM | 42.7 µM | > 100 µM | > 100 µM | 50 µM | > 100 µM | > 100 µM | > 100 µM | – | – | – | – | – | – | – | – | – | – | –
CCOC(=O)C1=C(C)NC(C)=C(C(=O)OCC)C1c1cc(Br)c(O)c(OC)c1 | 37 µM | 31.4 µM | 22.9 µM | 17 µM | 15.9 µM | 52.4 µM | 30.8 µM | 7.14 µM | 10.5 µM | 3.74 µM | 14 µM | 3.61 µM | 4.79 µM | 1.85 µM | 5.97 µM | 2.89 µM | 12.6 µM | 10.3 µM | 4.71 µM | 4.32 µM
C=C1C(=O)O[C@H]2[C@H]1CC/C(COC(=O)c1cccc3ccccc13)=C\CC[C@@]1(C)O[C@@H]21 | 3.43 µM | 2.83 µM | 3.16 µM | 2.94 µM | 5.58 µM | 12.8 µM | – | 13.3 µM | 10.2 µM | 2.07 µM | 4.99 µM | 2.95 µM | – | 3.04 µM | 1.7 µM | 2.47 µM | 1.46 µM | 1.64 µM | 1.47 µM | 2.27 µM
C[C@@H](Oc1cc(-c2cnn(C3CC4(CNC4)C3)c2)cnc1N)c1c(Cl)ccc(F)c1Cl | 22.7 µM | 4.33 µM | 3.3 µM | 13.8 µM | 14.2 µM | 7.27 µM | 21.4 µM | 9.29 µM | 13.6 µM | 0.111 µM | 7.42 µM | 1.03 µM | 7.58 µM | 2.44 µM | 9.15 µM | 1.41 µM | 1.79 µM | 1.38 µM | 3.64 µM | 1.82 µM
COc1ccc(-c2nnc(Nc3nc(O)c(C4=c5cc(OC(F)(F)F)ccc5=NC4=O)s3)o2)cc1 | > 100 µM | 35.9 µM | > 100 µM | 29.5 µM | 43.6 µM | 49.3 µM | 69.2 µM | 36.8 µM | > 100 µM | 3.75 µM | 19.6 µM | 18.5 µM | 12.4 µM | 15.3 µM | 46.3 µM | 6.12 µM | 13.2 µM | 25.4 µM | 15.1 µM | 18.2 µM
CN=c1ss/c(=N\C(=S)N(C)C)n1C1CCCCC1 | > 31.6 µM | > 31.6 µM | > 31.6 µM | > 31.6 µM | > 31.6 µM | > 31.6 µM | > 31.6 µM | > 10 µM | > 31.6 µM | – | > 31.6 µM | – | – | – | – | – | – | – | – | –
CN(C(=O)C12C3C4C1C1C2C3C41C(=O)N(C)C(C)(C)C)C(C)(C)C (stereo not given) | – | – | > 50 µM | > 50 µM | – | > 50 µM | > 50 µM | > 50 µM | > 50 µM | – | – | – | – | – | – | – | – | – | – | –
O=Cc1c[nH]c2ccc(-c3csc4ccccc34)cc12 | > 100 µM | > 100 µM | > 100 µM | 34.6 µM | > 100 µM | 19.1 µM | > 100 µM | 5.88 µM | 13.1 µM | 3.39 µM | > 100 µM | 3.1 µM | 1.93 µM | 1.25 µM | 5.12 µM | 2.64 µM | 13.2 µM | 4.46 µM | 3.02 µM | 88.1 µM
COc1ccc(/C=C/c2ccnc3ccccc23)cc1 | 19.9 µM | 31.4 µM | 31.1 µM | 29.2 µM | 36.5 µM | 34 µM | 31.6 µM | – | 32.7 µM | – | 30.1 µM | – | – | – | – | – | – | – | – | –
COc1cc(-c2nccc3[nH]c(-c4cccc5[nH]ccc45)nc23)cc(OC)c1OC | 16.2 µM | – | < 0.01 µM | 20.9 µM | 27.6 µM | 13.2 µM | 14.6 µM | 16.5 µM | – | < 0.01 µM | 13.4 µM | < 0.01 µM | < 0.01 µM | < 0.01 µM | < 0.01 µM | – | – | < 0.01 µM | < 0.01 µM | 3.89 µM
NC(Cn1ccc(=O)c(O)c1)C(=O)O (stereo not given) | > 100 µM | > 100 µM | > 100 µM | > 100 µM | > 100 µM | > 100 µM | > 100 µM | – | > 100 µM | – | > 100 µM | – | – | – | – | – | – | – | – | –
O=C1C=CC(=O)c2c1cc1ccccc1c2O | 5.67 µM | 7.91 µM | 6.15 µM | 20 µM | 32.5 µM | – | 12.7 µM | 33.2 µM | 31.6 µM | – | 26.4 µM | – | – | – | – | – | – | – | – | –
O=c1[nH]cc(CO)c(=O)[nH]1 | – | > 100 µM | > 100 µM | > 100 µM | > 100 µM | > 100 µM | > 100 µM | > 100 µM | > 100 µM | > 100 µM | > 100 µM | > 100 µM | > 100 µM | > 100 µM | – | > 100 µM | > 100 µM | > 100 µM | > 100 µM | > 100 µM
CCOC(=O)C/C(N)=C(\C#N)C(=O)OCC | – | – | > 100 µM | > 100 µM | > 100 µM | > 100 µM | > 100 µM | > 100 µM | > 100 µM | – | > 100 µM | – | – | – | – | – | – | – | – | –
COc1cc(C2CC(=O)c3c(C)nn(-c4nc5ccccc5[nH]4)c3C2)cc(OC)c1OC (stereo not given) | – | > 100 µM | > 100 µM | > 100 µM | > 100 µM | – | > 100 µM | 3.46 µM | – | > 100 µM | > 100 µM | – | > 100 µM | 1.72 µM | – | – | > 100 µM | > 100 µM | 14.6 µM | > 100 µM
O=C(O)c1ccccc1-c1ccccc1C(=O)Nc1ccc2c(c1)Cc1ccccc1-2 | > 100 µM | 78.3 µM | 31.2 µM | 32 µM | 49.2 µM | – | > 100 µM | > 100 µM | > 100 µM | – | > 100 µM | – | – | – | – | – | – | – | – | –
